Measurements taken from paper PMC4559029 (Cancer Medicine, 2015).

Tests used:
[1] = published QT results for ondansetron; format: in vivo; settings: 24 mg ondansetron, inferred by authors from published 32 mg data
Protocol: The majority of patients (18/26) received ondansetron 24 mg IV.

[2] = set-up: method as in earlier work; settings: ondansetron 32 mg IV; cited from earlier work
[3] = test system: patients with advanced malignancy; assay: centrally read ECG analysis (QTcF, PR, QRS, heart rate) in patients with advanced malignancy
Protocol: All patients provided written informed consent.
PK/PD modeling is not reported as it was not possible to account for the possible effects of coadministered antiemetics and the absence of closely collected ECGs during times of PK sampling when rapid changes in the plasma concentrations occurred. For the central tendency and categorical analyses, the mean of the three replicates was used. All paper ECGs were analyzed by a core central ECG laboratory (Duke Clinical Research Institute [DCRI], Durham, NC) in a fully blinded fashion. A DCRI technician marked the fiducial points on each ECG tracing and, using a digital caliper, measured the QT, PR, RR, and QRS intervals. All ECGs were over read by a DCRI cardiologist for verification of the interval measurements.

clinical = settings: human, plasma, intravenous
hERG-related current = settings: at 10 μg/mL; ref data on file, Celgene Corporation; cited from earlier work
patients = settings: early clinical development, across several studies; cited from earlier work

Row | SMILES | QTc effect at 4 h [1] | increase in QTc at 4 h [2] | initial increase in QTc [2] | upper 90% CI of maximal mean QTcF increase from preantiemetic baseline ([3]; 14 mg/m^2 4-h infusion, at 0.25 h postinitiation) | increase in heart rate ([3]; human, in vivo) | patients with absolute QTcF value >450 msec ([3]; human, in vivo) | AUC(0-inf) (clinical; 8 mg/m^2) | Cmax (clinical; 8 mg/m^2) | half-life (clinical; 8 mg/m^2) | Cmax (clinical; 10 mg/m^2) | half-life (clinical; 10 mg/m^2) | AUC(0-inf) (clinical; 12 mg/m^2) | Cmax (clinical; 12 mg/m^2) | half-life (clinical; 12 mg/m^2) | AUC(0-inf) (clinical; 14 mg/m^2) | Cmax (clinical; 14 mg/m^2) | half-life (clinical; 14 mg/m^2) | inhibition of hERG-related current (hERG-related current) | patients with sudden death (patients)
1 | Cc1nccn1CC1CCc2c(c3ccccc3n2C)C1=O (stereo not shown) [ondansetron] | < 5 ms | ≈ 6 msec | ≈ 20 msec |  |  |  |  |  |  |  |  |  |  |  |  |  |  |  | 
2 | C/C=C1\NC(=O)[C@H]2CSSCC/C=C/[C@H](CC(=O)N[C@H](C(C)C)C(=O)N2)OC(=O)[C@H](C(C)C)NC1=O [romidepsin] |  |  |  | 14.5 ms | ≈ 20 bpm | No patient | 1350 ng·h/mL | 1110 ng/mL | 4.82 h | 1480 ng/mL | 4.94 h | 3010 ng·h/mL | 2090 ng/mL | 4.32 h | 3070 ng·h/mL | 780 ng/mL | 3.7 h | 37% | six
